The values below come from US10322118B2, “Compounds and methods for inhibiting Cif virulence factor” (priority 2012, dated 2019).

Where a name gives a salt, the structure may show the parent alone.

The target of assay [1] is T1, Cif (Pseudomonas aeruginosa (strain UCBPP-PA14), UniProt A0A0H2ZD27). In words: Secondary screen (sextuplicate) with fluorogenic substrate CMNGC.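 Note: purified enzyme assay in 96-well plates, 200 µL volume, fluorescence recorded each minute across a 60 min reaction.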 The assay is classed as biochemical.
T1 sequence (A0A0H2ZD27 25-319 limits assumed): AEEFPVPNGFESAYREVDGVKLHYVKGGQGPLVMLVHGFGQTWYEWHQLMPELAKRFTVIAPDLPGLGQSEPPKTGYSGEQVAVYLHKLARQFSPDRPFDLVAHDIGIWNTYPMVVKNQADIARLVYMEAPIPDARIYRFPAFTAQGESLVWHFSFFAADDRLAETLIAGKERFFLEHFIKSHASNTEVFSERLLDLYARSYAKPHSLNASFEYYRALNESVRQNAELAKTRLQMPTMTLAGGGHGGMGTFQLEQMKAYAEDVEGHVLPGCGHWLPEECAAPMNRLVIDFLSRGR
In assay [2] the target is T1, Cif. Nature of the assay: Primary high throughput screen with fluorogenic substrate CMNGC.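 Note: fluorescence of 200 µL reactions in 96-well plates read on a plate reader, inhibitor at tenfold molar excess over Cif enzyme.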 Type of assay: biochemical. The following applies: primary screen; test compounds at 10 μM, 1 μM Cif, 25 μM CMNGC, 60 minutes.
Where [3] appears, read: read-out: % Inhibition, Mean ± SD.
[4] abbreviates: read-out: % Inhibition, plate 1.
Where [5] appears, read: read-out: % Inhibition, plate 2.
Where [6] appears, read: read-out: % Inhibition, plate 3.
The mark [7] stands for this setting: read-out: % Inhibition, plate 4.
The mark [8] stands for this setting: read-out: % Inhibition, plate 5.
The mark [9] stands for this setting: read-out: % Inhibition, plate 6.

As to `COC(=O)/C=C/C(=O)OC` [Dimethyl fumarate], the inhibition (commonly the change of the read-out against control, counted positive when it falls) at 10 µM is 5 ± 4% in assay [1] (setting [3]); 3% in assay [1] (setting [4]); -2% in assay [1] (setting [5]); 8% in assay [1] (setting [6]); 7% in assay [1] (setting [7]); 9% in assay [1] (setting [8]). Besides, the inhibition at 10 µM was found to be 6% in assay [1] (setting [9]) and 36% in assay [2].
As to `CN(C)CCCN1c2ccccc2CCc2ccc(Cl)cc21` [Clomipramine hydrochloride], the inhibition at 10 µM in assay [1] (setting [3]) was found to be 5 ± 4%; in assay [1] (setting [4]), 0%; in assay [1] (setting [5]), 3%; in assay [1] (setting [6]) it was 9%; in assay [1] (setting [7]), 3%; in assay [1] (setting [8]), 9%. The values for the inhibition at 10 µM in assay [1] (setting [9]) and in assay [2] were 7% and 51%, respectively.
As to `CC(=O)[C@H]1CC[C@H]2[C@@H]3CC=C4C[C@@H](OC(=O)CCC(=O)O)CC[C@]4(C)[C@H]3CC[C@]12C` [Pregnenolone succinate], in assay [1] (secondary screen, 10 μM, mean of six plates), the “% Inhibition, Mean ± SD” value was found to be 12 ± 4%. The “% Inhibition, plate 1” value in assay [1] (secondary screen, 10 μM, plate number 1) was found to be 6%. Moreover, the “% Inhibition, plate 2” value in assay [1] (secondary screen, 10 μM, plate number 2) is listed as 12%. The “% Inhibition, plate 3” value in assay [1] (secondary screen, 10 μM, plate number 3) came to 8%. In addition, in assay [1] (secondary screen, 10 μM, plate number 4), the “% Inhibition, plate 4” value stood at 13%. Also, the “% Inhibition, plate 5” value in assay [1] (secondary screen, 10 μM, plate number 5) was found to be 17%. Moreover, in assay [1] (secondary screen, 10 μM, plate number 6), the “% Inhibition, plate 6” value was 15%. The % Inhibition (in general, the percentage by which the read-out fell short of the control) in assay [2] is reported as 34%.
Turning to `C=CC1=C(C)c2cc3[nH]c(cc4nc(cc5[nH]c(cc1n2)c(C)c5CCC(=O)O)C(CCC(=O)O)=C4C)c(C)c3C=C` [Protoporphyrin ix], the inhibition at 10 µM in assay [1] (setting [3]) was found to be 20 ± 7%; in assay [1] (setting [4]), 12%; in assay [1] (setting [5]), 16%; in assay [1] (setting [6]), 21%; in assay [1] (setting [7]), 18%; in assay [1] (setting [8]) it was 28%. The inhibition at 10 µM came out at 29% in assay [1] (setting [9]) and 46% in assay [2].
Turning to `Cc1cccc(Nc2ccccc2C(=O)O)c1C` [Mefenamic acid], the inhibition at 10 µM in assay [1] (setting [3]) was 16 ± 8%; in assay [1] (setting [4]), 5%; in assay [1] (setting [5]) it was 24%; in assay [1] (setting [6]) it was 17%; in assay [1] (setting [7]), 22%; in assay [1] (setting [8]), 20%. Further, the inhibition at 10 µM was determined as 6% in assay [1] (setting [9]) and 48% in assay [2].
For `S=c1nc[nH]c2nc[nH]c12` [Mercaptopurine], the inhibition at 10 µM in assay [1] (setting [3]) was found to be 13 ± 5%; in assay [1] (setting [4]), 5%; in assay [1] (setting [5]) it was 15%; in assay [1] (setting [6]) it was 19%; in assay [1] (setting [7]) it was 15%; in assay [1] (setting [8]), 15%. Further, the figures for the inhibition at 10 µM in assay [1] (setting [9]) and in assay [2] were 11% and 32%, respectively.
For `CC(=O)[C@@]1(O)CC[C@H]2[C@@H]3C[C@H](C)C4=CC(=O)C=C[C@]4(C)[C@@]3(F)[C@@H](O)C[C@@]21C` [Fluorometholone], the inhibition at 10 µM is 18 ± 2% in assay [1] (setting [3]); 18% in assay [1] (setting [4]); 15% in assay [1] (setting [5]); 19% in assay [1] (setting [6]); 16% in assay [1] (setting [7]); 21% in assay [1] (setting [8]). Also, the inhibition at 10 µM in assay [1] (setting [9]) was determined as 16%; in assay [2], 31%.
Regarding `CN(C)CCOc1ccc(/C(=C(/CCCl)c2ccccc2)c2ccccc2)cc1` [Toremiphene citrate], the inhibition at 10 µM in assay [1] (setting [3]) was found to be 10 ± 4%; in assay [1] (setting [4]), 3%; in assay [1] (setting [5]), 7%; in assay [1] (setting [6]), 13%; in assay [1] (setting [7]), 12%; in assay [1] (setting [8]) it was 15%. In addition, the inhibition at 10 µM in assay [1] (setting [9]) was determined as 11%; in assay [2], 31%.
As to `CC(C)Cc1ccc(C(C)C(=O)O)cc1` (centres unmarked) [Ibuprofen], the inhibition at 10 µM in assay [1] (setting [3]) came out at 7 ± 5%; in assay [1] (setting [4]), 1%; in assay [1] (setting [5]), 6%; in assay [1] (setting [6]), 5%; in assay [1] (setting [7]), 8%; in assay [1] (setting [8]) it was 15%. The values for the inhibition at 10 µM in assay [1] (setting [9]) and in assay [2] were 7% and 48%, respectively.
As for `O=C(CCCN1CCN(c2ccccn2)CC1)c1ccc(F)cc1` [Azaperone], the inhibition at 10 µM in assay [2] came to 79%.
For the molecule `C[C@]12CCC(=O)C=C1C=C[C@@H]1[C@@H]2CC[C@@]2(C)[C@H]1CC[C@@]21CCC(=O)O1` [Canrenone], the inhibition at 10 µM came to 24 ± 5% in assay [1] (setting [3]); 16% in assay [1] (setting [4]); 27% in assay [1] (setting [5]); 20% in assay [1] (setting [6]); 24% in assay [1] (setting [7]); 28% in assay [1] (setting [8]). The results for the inhibition at 10 µM in assay [1] (setting [9]) and in assay [2] were 27% and 36%, respectively.
Take `CC(=O)CC(c1ccccc1)c1c(O)c2ccccc2oc1=O` (centres unmarked) [Warfarin]: the inhibition at 10 µM in assay [1] (setting [3]) was found to be 15 ± 3%; in assay [1] (setting [4]), 12%; in assay [1] (setting [5]), 12%; in assay [1] (setting [6]), 17%; in assay [1] (setting [7]) it was 15%; in assay [1] (setting [8]) it was 20%. The inhibition at 10 µM came to 17% in assay [1] (setting [9]) and 32% in assay [2].
Consider `Cc1c(Nc2ncccc2C(=O)O)cccc1C(F)(F)F` [Flunixin meglumine], for which the inhibition at 10 µM was determined as 14 ± 5% in assay [1] (setting [3]); 13% in assay [1] (setting [4]); 15% in assay [1] (setting [5]); 14% in assay [1] (setting [6]); 18% in assay [1] (setting [7]); 19% in assay [1] (setting [8]). The inhibition at 10 µM in assay [1] (setting [9]) amounted to 4%; in assay [2], 32%.
In the case of `Nc1nc(N)c2nc(-c3ccccc3)c(N)nc2n1` [Triamterene], the inhibition at 10 µM worked out at 19 ± 5% in assay [1] (setting [3]); 15% in assay [1] (setting [4]); 17% in assay [1] (setting [5]); 18% in assay [1] (setting [6]); 21% in assay [1] (setting [7]); 28% in assay [1] (setting [8]). The results for the inhibition at 10 µM in assay [1] (setting [9]) and in assay [2] were 16% and 35%, respectively.
On to `Nc1nc(Cl)nc2c1ncn2[C@@H]1O[C@H](CO)[C@@H](O)[C@@H]1F` [Clofarabine], for which the inhibition at 10 µM worked out at 12 ± 5% in assay [1] (setting [3]); 7% in assay [1] (setting [4]); 8% in assay [1] (setting [5]); 7% in assay [1] (setting [6]); 13% in assay [1] (setting [7]); 20% in assay [1] (setting [8]). Further, the inhibition at 10 µM in assay [1] (setting [9]) amounted to 16%; in assay [2], 43%.
Consider `C[C@]12CC[C@H]3C(=CCc4cc(O)ccc43)[C@@H]1CCC2=O` [Equilin], for which the inhibition at 10 µM in assay [2] is 71%.
As to `O=C([O-])c1ccccc1-c1c2cc(Br)c(=O)cc-2oc2[c]([Hg+])c([O-])c(Br)cc12.[Na+].[Na+].[OH-]` [Merbromin], the “% Inhibition” value in assay [2] was determined as 47%.
Turning to `C[C@H]1O[C@H](O[C@H]2[C@H](O)[C@@H](O)[C@@H](O[C@H]3[C@H](O)[C@@H](O)C(O)O[C@@H]3CO)O[C@@H]2CO)[C@H](O)[C@@H](O)[C@@H]1N[C@H]1C=C(CO)[C@@H](O)[C@H](O)[C@H]1O` (some centres unmarked) [Acarbose], the inhibition at 10 µM in assay [2] was determined as 47%.
